One assay has as its target T1, orexin-2 receptor (OX2R) (Homo sapiens, UniProt O43614).
T1 construct: expressed in transfected cells; host or cells: CHO cells (membranes)
T1 sequence (O43614 1-444): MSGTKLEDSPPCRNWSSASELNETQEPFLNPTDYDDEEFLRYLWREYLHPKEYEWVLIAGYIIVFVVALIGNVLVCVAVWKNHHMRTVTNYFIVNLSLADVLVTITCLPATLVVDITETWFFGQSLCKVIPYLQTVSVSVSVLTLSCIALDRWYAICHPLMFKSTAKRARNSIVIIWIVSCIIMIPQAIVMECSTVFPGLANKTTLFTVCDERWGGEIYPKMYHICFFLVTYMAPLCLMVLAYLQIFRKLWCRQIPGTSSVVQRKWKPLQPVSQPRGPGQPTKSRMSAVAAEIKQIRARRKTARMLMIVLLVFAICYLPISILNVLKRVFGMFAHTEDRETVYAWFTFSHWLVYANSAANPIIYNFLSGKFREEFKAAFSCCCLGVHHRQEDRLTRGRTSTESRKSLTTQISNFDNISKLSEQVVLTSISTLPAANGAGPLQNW
Description: radioligand binding assay, membranes from CHO cells expressing OX2 receptor. The conditions noted are these: CHO cell membranes. The procedure:
(§1) The utility of the compounds in accordance with the present invention as orexin receptor OX1R and/or OX2R antagonists may be readily determined without undue experimentation by methodology well known in the art, including the “FLIPR Ca^2+ Flux Assay” (Okumura et al., Biochem. Biophys. Res. Comm. 280:976-981, 2001). In a typical experiment the OX1 and OX2 receptor antagonistic activity of the compounds of the present invention was determined in accordance with the following experimental method. For intracellular calcium measurements, Chinese hamster ovary (CHO) cells expressing the rat OX1 receptor or the human OX2 receptor, are grown in Iscove's modified DMEM containing 2 mM L-glutamine, […], 1% hypoxanthine-thymidine supplement, 100 U/ml penicillin, 100 ug/ml streptomycin and 10% heat-inactivated fetal calf serum (FCS). The cells are seeded at 20,000 cells/well into Becton-Dickinson black 384-well clear bottom sterile plates coated with poly-D-lysine. All reagents were from GIBCO-Invitrogen Corp. The seeded plates are incubated overnight at 37° C. and 5% CO2. Ala-6,12 human orexin-A as the agonist is prepared as a 1 mM stock solution in 1% bovine serum albumin (BSA) and diluted in assay buffer (HBSS containing 20 mM HEPES, 0.1% BSA and 2.5 mM probenecid, pH7.4) for use in the assay at a final concentration of 70 pM. Test compounds are prepared as 10 mM stock solution in DMSO, then diluted in 384-well plates, first in DMSO, then assay buffer. On the day of the assay, cells are washed 3 times with 100 ul assay buffer and then incubated for 60 min (37° C., 5% CO2) in 60 ul assay buffer containing 1 uM Fluo-4AM ester, 0.02% pluronic acid, and 1% BSA. The dye loading solution is then aspirated and cells are washed 3 times with 100 ul assay buffer. 30 ul of that same buffer is left in each well. Within the Fluorescent Imaging Plate Reader (FLIPR, Molecular Devices), test compounds are added to the plate in a volume of 25 ul, incubated for 5 min and finally 25 ul of agonist is added. Fluorescence is measured for each well at 1 second intervals for 5 minutes and the height of each fluorescence peak is compared to the height of the fluorescence peak induced by 70 pM Ala-6,12 orexin-A with buffer in place of antagonist. For each antagonist, IC50 value (the concentration of compound needed to inhibit 50% of the agonist response) is determined. Alternatively, compound potency can be assessed by a radioligand binding assay (described in Bergman et. al. Bioorg. Med. Chem. Lett. 2008, 18, 1425-1430) in which the inhibition constant (Ki) is determined in membranes prepared from CHO cells expressing either the orexin-1 (OX1) or orexin-2 (OX2) receptor. The intrinsic orexin receptor antagonist activity of a compound which may be used in the present invention may be determined by these assays.

The target of a further assay is T2, orexin-1 receptor (OX1R) (UniProt O43613).
T2 sequence (O43613 1-425): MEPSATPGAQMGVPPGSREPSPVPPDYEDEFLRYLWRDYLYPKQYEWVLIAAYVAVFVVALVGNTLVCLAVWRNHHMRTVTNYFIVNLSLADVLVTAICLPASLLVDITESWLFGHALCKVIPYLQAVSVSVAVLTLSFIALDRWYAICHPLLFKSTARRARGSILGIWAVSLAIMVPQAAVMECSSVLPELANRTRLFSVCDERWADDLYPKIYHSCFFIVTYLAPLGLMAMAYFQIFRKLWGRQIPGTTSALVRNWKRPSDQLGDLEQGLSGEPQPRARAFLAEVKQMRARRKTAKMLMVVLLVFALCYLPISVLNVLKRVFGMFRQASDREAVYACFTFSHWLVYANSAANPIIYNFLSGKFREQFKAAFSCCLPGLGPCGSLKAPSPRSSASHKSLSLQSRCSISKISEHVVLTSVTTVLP
In words: radioligand binding assay, membranes from CHO cells expressing OX1 receptor. The conditions noted are these: CHO cell membranes. The procedure:
as §1

With `Cc1ccc(-n2nccn2)c(C(=O)N2CCC[C@@H](COc3ccccn3)[C@@H]2C)c1` [A-6], the Ki – broadly, the equilibrium dissociation constant of an inhibitor or competing ligand from its target – at orexin-2 receptor (OX2R) was found to be 39 nM; on orexin-1 receptor (OX1R), 1 nM.

Consider `Cc1ccc(-n2nccn2)c(C(=O)N2CCC[C@@H](COc3ccc(Br)cn3)[C@@H]2C)c1` (stereo in doubt) [A-7, 5-bromo-2-({2-methyl-1-[5-methyl-2-(2H-1,2,3-triazol-2-yl)benzoyl]piperidin-3-yl}methoxy)pyridine], for which the inhibitory constant (Ki) on orexin-2 receptor (OX2R) was found to be 6.4 nM; at orexin-1 receptor (OX1R) it was 1.1 nM.

On to `Cc1ccc(-n2nccn2)c(C(=O)N2CCC[C@@H](COc3ccnc4ccccc34)[C@@H]2C)c1` (stereo in doubt) [A-10, 4-({2-methyl-1-[5-methyl-2-(2H-1,2,3-triazol-2-yl)benzoyl]piperidin-3-yl}methoxy)quinoline], for which the inhibitory constant (Ki) on orexin-2 receptor (OX2R) is 2.6 nM; on orexin-1 receptor (OX1R), 0.6 nM.

In the case of `Cc1ccc(-n2nccn2)c(C(=O)N2CCC[C@@H](COc3nccc4ccccc34)[C@@H]2C)c1` (stereo in doubt) [A-8, 1-({2-methyl-1-[5-methyl-2-(2H-1,2,3-triazol-2-yl)benzoyl]piperidin-3-yl}methoxy)isoquinoline], the values for the inhibition constant Ki at orexin-2 receptor (OX2R) and on orexin-1 receptor (OX1R) were 2.1 nM and 0.5 nM, respectively.

In the case of `Cc1ccc(-n2nccn2)c(C(=O)N2CCC[C@@H](COc3cccc(Br)n3)[C@@H]2C)c1` (stereo in doubt) [A-9, 2-bromo-6-({2-methyl-1-[5-methyl-2-(2H-1,2,3-triazol-2-yl)benzoyl]piperidin-3-yl}methoxy)pyridine], the Ki turned out to be 7.5 nM on orexin-2 receptor (OX2R) and 2.7 nM on orexin-1 receptor (OX1R).

The values are drawn from patent US8357700B2, “2,3-disubstituted piperidine orexin receptor antagonists” (Merck Sharp & Dohme Corp., priority 2008, dated 2013).
